Several values for one entry are separate records, joined by “and”; a condition that tells them apart may be missing. Identical values can stand only once.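 The compound was tested at five concentrations on cells cultured in 96-well plates, with a 48-hour exposure period. Abbreviation: GI50, concentration required for 50% inhibition of growth. TGI is the concentration that stops growth completely.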

This note sets out measurements from PubChem BioAssay (NCI).

Test systems include CCRF-CEM leukemia; SK-OV-3 ovarian; HT29 colon; A549 NSCLC; NCI-H23 lung; NCI-H522 lung; OVCAR-3 ovarian; UACC-62 melanoma.
Experiment in all cases: NCI-60 cell line screen, 48 h

As for `COc1ccc2nc(NC(=O)C(=O)NNC(=O)c3ccncc3)sc2c1`, the TGI in the assay with CCRF-CEM leukemia, in the assay with SK-OV-3 ovarian, in the assay on HT29 colon, in the assay with A549 NSCLC, in the assay on NCI-H23 lung and in the assay on NCI-H522 lung was more than 100 µM in each case. For the same compound, the TGI in the assay on OVCAR-3 ovarian and in the assay with UACC-62 melanoma was more than 100 µM in each case.
In the case of `CCOP1(=O)C=C(C)C(=C(Cl)Cl)C(C)=C1` (stereo not drawn), the TGI with CCRF-CEM leukemia was 68.6 µM; in the assay on SK-OV-3 ovarian, more than 100 µM; with HT29 colon, 84.1 µM; with A549 NSCLC, 58.8 µM; in the assay on NCI-H23 lung, 38 µM; in the assay with NCI-H522 lung it was 7.79 µM and 18.9 µM. Moreover, the TGI in the assay with OVCAR-3 ovarian came out at 64.2 µM; with UACC-62 melanoma, 23.6 µM. In addition, the figures for the GI50 in the assay with HT29 colon, in the assay with NCI-H522 lung and in the assay on UACC-62 melanoma were 6.6 µM, 5.57 µM and 9.31 µM, respectively.
Turning to `COC[C@H](C)N=CN1CCc2ccccc2C1(Cc1ccccc1)Cc1ccccc1`, the TGI with CCRF-CEM leukemia was 56.7 µM; in the assay with SK-OV-3 ovarian it was 30.6 µM; in the assay on HT29 colon, 20.1 µM; in the assay with A549 NSCLC it was more than 100 µM; with NCI-H23 lung it was 39.8 µM; in the assay with NCI-H522 lung, 26.7 µM. Moreover, the results for the TGI with OVCAR-3 ovarian and in the assay on UACC-62 melanoma were 43.8 µM and more than 100 µM, respectively.
For the compound `CCN(CC)CCNc1ccc2nc(C)n3c4ccc(O)cc4c(=O)c1c23`, the TGI in the assay with SK-OV-3 ovarian amounted to 12.6 µM; in the assay on HT29 colon, 1.57 µM; in the assay with A549 NSCLC, 1.25 µM; in the assay on NCI-H522 lung, 2.24 µM; with OVCAR-3 ovarian, 17.1 µM.
Consider `[O-]c1c2c(nn1-c1ccc(Cl)cc1)c1ccccc1c[n+]2Cc1ccccc1`, for which the TGI in the assay with CCRF-CEM leukemia, in the assay on SK-OV-3 ovarian, in the assay on HT29 colon, in the assay on A549 NSCLC, with NCI-H23 lung and in the assay with NCI-H522 lung was more than 100 µM throughout. Moreover, the TGI in the assay on OVCAR-3 ovarian and in the assay with UACC-62 melanoma was more than 100 µM in each case.
In the case of `COC(=O)C1C=CCON2CCc3c(n(S(=O)(=O)c4ccccc4)c4ccccc34)C12` (stereo not drawn), the TGI in the assay on CCRF-CEM leukemia is more than 71.1 µM; in the assay with SK-OV-3 ovarian, more than 85.7 µM; in the assay on HT29 colon it was more than 100 µM; in the assay on A549 NSCLC it was more than 100 µM; in the assay with NCI-H23 lung, more than 100 µM; with NCI-H522 lung, more than 62.5 µM. The TGI was more than 100 µM with OVCAR-3 ovarian and more than 62.5 µM with UACC-62 melanoma.
On to `COc1cccc(NC(=O)C(=O)C2C=CCS2(=O)=O)c1` (stereo not drawn), for which the TGI with CCRF-CEM leukemia, in the assay with SK-OV-3 ovarian, in the assay on HT29 colon, in the assay with A549 NSCLC, in the assay with NCI-H23 lung and with NCI-H522 lung was more than 100 µM throughout. Also, the TGI in the assay on OVCAR-3 ovarian and in the assay on UACC-62 melanoma was more than 100 µM each time.
On to `CC1CC[P+](c2ccccc2)(c2ccccc2)CC1`, for which the TGI in the assay with CCRF-CEM leukemia, in the assay with SK-OV-3 ovarian, in the assay on HT29 colon, with A549 NSCLC, in the assay on NCI-H23 lung and in the assay on NCI-H522 lung was more than 100 µM throughout. The TGI with OVCAR-3 ovarian and with UACC-62 melanoma was more than 100 µM in each case.
`C1C[OH+]CC[OH+]CCNCC[OH+]CC[OH+]CCN1.Cl.[Cl-].[Pt+4]`: the GI50 in the assay on CCRF-CEM leukemia is more than 100 µM; with SK-OV-3 ovarian, more than 100 µM; in the assay on HT29 colon it was more than 100 µM; in the assay on A549 NSCLC, more than 100 µM; in the assay on NCI-H23 lung, 5.27 µM; in the assay with NCI-H522 lung, 2.27 µM. Besides, in the assay on UACC-62 melanoma, the GI50 is more than 100 µM. Further, the TGI is more than 100 µM with CCRF-CEM leukemia; more than 100 µM with SK-OV-3 ovarian; more than 100 µM in the assay with HT29 colon; more than 100 µM in the assay on A549 NSCLC; 25 µM with NCI-H23 lung; 6.47 µM in the assay on NCI-H522 lung. The TGI in the assay with UACC-62 melanoma was more than 100 µM.
Regarding `CCc1cccc(C)c1NC(=S)NC(=O)c1ccccc1C(=O)NC(=S)Nc1c(C)cccc1CC`, the TGI is more than 100 µM in the assay with CCRF-CEM leukemia; more than 100 µM with SK-OV-3 ovarian; more than 100 µM in the assay with HT29 colon; more than 100 µM with A549 NSCLC; more than 100 µM with NCI-H23 lung; 35.2 µM in the assay on NCI-H522 lung. Besides, the TGI in the assay on OVCAR-3 ovarian was 80.9 µM; with UACC-62 melanoma, more than 100 µM.
In the case of `COc1ccc(-c2cc(=O)c3c(O)cc(O)cc3o2)c(OC)c1OC`, the TGI in the assay on CCRF-CEM leukemia, with SK-OV-3 ovarian, with HT29 colon, with A549 NSCLC, in the assay on NCI-H23 lung and with NCI-H522 lung was more than 100 µM in each case. Also, the TGI with OVCAR-3 ovarian and with UACC-62 melanoma was more than 100 µM each time.
`CCOC(=O)C(=O)Nc1ccccc1C(C)C`: the TGI in the assay on CCRF-CEM leukemia, in the assay with SK-OV-3 ovarian, with HT29 colon, in the assay on A549 NSCLC, in the assay on NCI-H23 lung and with NCI-H522 lung was more than 100 µM each time. Further, the TGI in the assay on OVCAR-3 ovarian and in the assay with UACC-62 melanoma was more than 100 µM each time.
As to `C=CCN(N=O)C(=O)NCCCCC(NC(C)=O)C(=O)NCc1ccccc1` (stereo not drawn), the TGI in the assay on CCRF-CEM leukemia, in the assay with SK-OV-3 ovarian, with HT29 colon, with A549 NSCLC, in the assay on NCI-H23 lung and with NCI-H522 lung was more than 100 µM each time. Also, the TGI in the assay on OVCAR-3 ovarian and in the assay with UACC-62 melanoma was more than 100 µM throughout.
As to `CCOC1CC2OC(=O)C1C=C2C(=O)OC` (stereo not drawn), the TGI in the assay on CCRF-CEM leukemia was 56.6 µM; in the assay with SK-OV-3 ovarian, more than 100 µM; in the assay with HT29 colon it was more than 100 µM; in the assay with A549 NSCLC, more than 100 µM; with NCI-H23 lung, 44.2 µM; with NCI-H522 lung, 28.1 µM. Besides, the TGI was 75.1 µM with OVCAR-3 ovarian and more than 100 µM with UACC-62 melanoma.
Turning to `C=C1Cc2cc(OC)c(OC)c(OC)c2-c2ccc(SC)c(=O)cc21`, the TGI is 6.85 µM with CCRF-CEM leukemia; 5.15 µM in the assay with SK-OV-3 ovarian; less than 0.01 µM in the assay with HT29 colon; 19.5 µM with A549 NSCLC; 2.11 µM in the assay with NCI-H23 lung; less than 0.01 µM in the assay with NCI-H522 lung. The TGI in the assay on OVCAR-3 ovarian is less than 0.01 µM.
As to `CCN=C(C#N)NCC`, the TGI in the assay with CCRF-CEM leukemia, in the assay with SK-OV-3 ovarian, in the assay on HT29 colon, in the assay with A549 NSCLC, in the assay on NCI-H23 lung and with NCI-H522 lung was more than 100 µM in each case. Further, the TGI in the assay on OVCAR-3 ovarian and in the assay with UACC-62 melanoma was more than 100 µM each time.
